Legend:
Test in all cases: combination Emax (second highest fraction inhibited in the dose matrix, 72 h); higher = more inhibition; extreme values may be limits of the assay
[1] = system: KG-1 (Acute Myeloid Leukemia)
Summary of the method: (§1)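 Cell lines grown in DMEM/F12 or RPMI with 10% FBS were plated in 1536-well plates and held 24 hours at 37°C, 5% CO2 before 72 hours of exposure to two-drug dose matrices, with DMSO typically at 0.2%. CellTiter-Glo 2.0 luminescence gave viability, which was converted to inhibition. Vehicle wells were set to 0 and blank wells to 1. Combination Emax is the second-highest inhibition in the matrix, and Bliss excess is the observed combination effect minus the expected EA + EB − EA·EB, where EA and EB are the single-agent effects.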

[2] = system: HLE (Hepatocellular Carcinoma)
Summary of the method: as §1

[3] = system: ETK-1 (Biliary Tract Carcinoma)
Summary of the method: as §1

[4] = system: SNG-M (Endometrial Carcinoma)
Summary of the method: as §1

[5] = system: TYK-nu (Ovarian Carcinoma)
Summary of the method: as §1

[6] = system: PA-TU-8902 (Pancreatic Carcinoma)
Summary of the method: as §1

[7] = system: CAL-39 (Other Solid Carcinomas)
Summary of the method: as §1

[8] = system: U-118-MG (Low Grade Glioma)
Summary of the method: as §1

[9] = system: HCC1143 (Breast Carcinoma)
Summary of the method: as §1

[10] = system: YT (Other Blood Carcinomas)
Summary of the method: as §1

[11] = system: H4 (Low Grade Glioma)
Summary of the method: as §1

[12] = system: SNU-61 (Colorectal Carcinoma)
Summary of the method: as §1

[13] = system: Saos-2 (Osteosarcoma)
Summary of the method: as §1

[14] = system: NCI-H1688 (Small Cell Lung Carcinoma)
Summary of the method: as §1

[15] = system: D-392MG (Glioblastoma)
Summary of the method: as §1

[16] = system: HCT-116 (Colorectal Carcinoma)
Summary of the method: as §1

[17] = system: D-283MED (Other Solid Carcinomas)
Summary of the method: as §1

[18] = system: HOP-92 (Non-Small Cell Lung Carcinoma)
Summary of the method: as §1

[19] = system: MCF7 (Breast Carcinoma)
Summary of the method: as §1

[20] = system: SW948 (Colorectal Carcinoma)
Summary of the method: as §1

SMILES	combination Emax [1]	combination Emax [2]	combination Emax [3]	combination Emax [4]	combination Emax [5]	combination Emax [6]	combination Emax [7]	combination Emax [8]	combination Emax [9]	combination Emax [10]	combination Emax [11]	combination Emax [12]	combination Emax [13]	combination Emax [14]	combination Emax [15]	combination Emax [16]	combination Emax [17]	combination Emax [18]	combination Emax [19]	combination Emax [20]
CN(C)CCCOc1ccc(-c2ccc3ncc4c(c3c2)n(C2CCOCC2)c(=O)n4C)cn1 [AZD0156] + C=CCn1c(=O)c2cnc(Nc3ccc(N4CCN(C)CC4)cc3)nc2n1-c1cccc(C(C)(C)O)n1 [AZD1775] (first compound max 1 µM, partner max 1 µM)	0.357	0.747	0.515	0.58	0.679	0.252	0.376	0.316	0.6	0.888	0.791	0.248	0.494	0.646	0.18	0.494	0.996	0.631	0.417	
CN(C)CCCOc1ccc(-c2ccc3ncc4c(c3c2)n(C2CCOCC2)c(=O)n4C)cn1 [AZD0156] + CCN(CCO)CCCOc1ccc2c(Nc3cc(CC(=O)Nc4cccc(F)c4)[nH]n3)ncnc2c1 [AZD2811] (first compound max 1 µM, 7x7, partner max 1 µM)	0.328	0.414	0.21	0.0754	0.304	0.0699	0.33	0.194	0.302	0.591	0.513	0.0613	0.369	0.143	0.0413	0.287	0.769	0.383	0.237	
CN(C)CCCOc1ccc(-c2ccc3ncc4c(c3c2)n(C2CCOCC2)c(=O)n4C)cn1 [AZD0156] + C[C@@H]1COCCN1C2=NC(=NC(=C2)C3(CC3)[S@](=N)(=O)C)C4=C5C=CNC5=NC=C4 [AZD6738] (first compound max 1 µM, 7x7, partner max 10 µM)	0.711	0.778	0.632	0.964	0.713	0.41	0.5	0.528	0.871	0.727	0.826	0.299	0.394	0.382	0.374	0.665	1	0.665	0.837	
CN(C)CCCOc1ccc(-c2ccc3ncc4c(c3c2)n(C2CCOCC2)c(=O)n4C)cn1 [AZD0156] + O=C(c1cc(Cc2n[nH]c(=O)c3ccccc23)ccc1F)N1CCN(C(=O)C2CC2)CC1 [Olaparib] (first compound max 3 µM, partner max 3 µM)	0.336	0.335	0.329	0.0957	0.354	0.239	0.331	0.304	0.203	0.212	0.536		0.218	0.206	0.131	0.281	0.557	0.256	0.324	0.252
C=CCn1c(=O)c2cnc(Nc3ccc(N4CCN(C)CC4)cc3)nc2n1-c1cccc(C(C)(C)O)n1 [AZD1775] + C1CN(CCC1(C(=O)N[C@@H](CCO)C2=CC=C(C=C2)Cl)N)C3=NC=NC4=C3C=CN4 [Capivasertib] (first compound max 3 µM, partner max 3 µM)	0.852	0.858	0.664	0.83	0.695	0.527	0.782	0.577	0.771	0.949	0.942		0.757	0.687	0.42	0.667	0.904	0.551	0.706	0.799
C=CCn1c(=O)c2cnc(Nc3ccc(N4CCN(C)CC4)cc3)nc2n1-c1cccc(C(C)(C)O)n1 [AZD1775] + C[C@@H]1COCCN1C2=NC(=NC(=C2)C3(CC3)[S@](=N)(=O)C)C4=C5C=CNC5=NC=C4 [AZD6738] (first compound max 1 µM, partner max 10 µM)	0.83	0.886	0.665	0.947	0.732	0.49	0.598	0.662	0.906	0.897	0.994	0.404	0.823	0.789	0.483	0.757	1	0.643	0.73	

From the supplement of paper PMC11061612
